For the series, the system named is Panc-1 xenografts. The experiment in a line: Liposomal release from tumors following intratumoral administration. It is filed as in vivo, nude mice. To be noted: 2 hours following injection, 5 nmol. How it is done:
FIG. 13. Example of spatial and temporal control of PoP-liposome permeabilization a) Spatial control of B. subtilis killing with triggered antibiotic release. Gentamicin was loaded in PoP-liposomes and embedded in hot agar along with the bacteria. The indicated spot was irradiated with a 658 nm laser (200 mW/cm^2) for 10 minutes and the plates were photographed 24 hours later. b) Temporal control of cargo release in Panc-1 xenografts. Mice were imaged following intratumoral injection of 5 nmol of either free sulforhodamine B or sulforhodamine B entrapped at self-quenching concentrations in PoP-liposomes. Representative images are shown of the indicated time points and conditions. Laser activation was performed after 2 hours. Representative results shown with n=3 mice per treatment group.
Liposomal release from tumors following intratumoral administration: Panc-1 tumors were grown by injecting 20 g female nude mice (Charles River) with 3×10^6 Panc-1 cells in a 1:1 matrigel dilution (BD Biosciences) in the hind flank of the mice. Following several weeks of growth, the tumors were carefully injected intratumorally with sulforhodamine B-PoP-liposomes. Images were acquired with an in vivo fluorescence imager (IVIS Lumina II) at the indicated time points with the mice under isoflurane-induced anesthesia. […]

On to `CCN(CC)c1ccc2c(-c3ccc(S(=O)(=O)O)cc3S(=O)(=O)[O-])c3ccc(=[N+](CC)CC)cc-3oc2c1` [free rhodamine, sulforhodamine B], for which the “fluorescence in tumor after intratumoral injection” value is “little fluorescence remaining in the tumor”.

The values above are taken from US10086074B2, “Compositions and method for light triggered release of materials from nanovesicles” (The Research Foundation for The State University of New York, priority 2012, dated 2018).
